pKi: −log10 of the molar value.
Assays:
[1] = tested on: PRI54M (PR with I54M mutation); test: Fluorescence assay of HIV-1 protease inhibition; format: biochemical; conditions: PRI54M vs PRWT
[2] = tested on: PRV82A (PR with V82A mutation); test: Fluorescence assay of HIV-1 protease inhibition; format: biochemical; conditions: PRV82A vs PRWT
PRI50V = conditions: mutant PRI50V; ref [22], [23]; cited from earlier work
PRD30N = conditions: mutant PRD30N; ref [22], [23]; cited from earlier work

In the case of `COc1ccc(S(=O)(=O)N(CC(C)C)C[C@@H](O)[C@H](Cc2ccccc2)NC(=O)O[C@H]2CO[C@H]3O[C@@H]4OCC[C@@H]4[C@H]32)cc1` [Compound 1, GRL-0519], the “increased Ki relative to PRWT” value [1] was 6-7 fold and the “increased Ki relative to PRWT” value [2] was 6-7 fold.

For `CC(C)CN(C[C@@H](O)[C@H](Cc1ccccc1)NC(=O)O[C@H]1CO[C@H]2OCC[C@H]21)S(=O)(=O)c1ccc(N)cc1` [DRV, darunavir], the pKi (PRI50V) is given as no less than 7.74 and the pKi (PRD30N) is given as 8.18.
